Experimental data published in US6949571B2, “1,2-dihydropyridine compounds, process for preparation of the same and use thereof” (Eisai Co., Ltd., priority 2000, dated 2005).

System: AMPA receptor
Settings: Table 2; suppression of AMPA-induced calcium influx into nerve cells
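Also: primary rat embryonic cortical neurons grown on an astrocyte layer in 96-well plates, used after at least 8 to 10 days in culture, Fura2-AM fluorescence ratio at 340/380 nm excitation.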
Experimental: Cerebral cortex was cut out from the brain of rat of gestational 18 days and treated with trypsin and DNase to disperse the cells. The cells were flown by MEM containing 10% of serum, sown in a culture bottle and astrocytes were proliferated. The astrocytes were re-dispersed by trypsin and sown in a 96-well plate. After incubation for one week, it was confirmed that the astrocytes covered all over the bottom and then the nerve cells of cerebral cortex which was dispersed by the above method were sown thereupon. After incubation for 24 hours, the medium was changed, the incubation was carried out for one week and, after that, the medium was changed to that containing 1 μM of MK-801. Nerve cells which were incubated for not shorter than 8 to 10 days were used.
Calcium influx into the cells was measured using Fura2-AM which was a calcium-sensitive fluorescent dye. It was treated in a medium containing Fura2-AM for 1 hour, incorporated into the cells, exchanged to a Tyrode solution containing 1 μM MK-801 and stimulation was carried out using 2 μM AMPA. Change in the amount of calcium flown into the cells were measured as the change in the fluorescent intensity at the exciting wave length of 340/380 nm.

`O=c1c(-c2ccc([N+](=O)[O-])cc2)cc(-c2ccccn2)cn1-c1ccccc1` [Example 275, 3-(4-Nitrophenyl)-1-phenyl-5-(2-pyridyl)-1,2-dihydropyridin-2-one] and `O=c1c(-c2ccc(Cl)nc2)cc(-c2ccccn2)cn1-c1ccccc1` [Example 287, 3-(2-Chloropyridin-5-yl)-5-(2-pyridyl)-1-phenyl-1,2-dihydropyridin-2-one] are within 1.5-fold of each other in IC50: 6100 nM for the first, 5600 nM for the second.

First: N#Cc1ccccc1-c1cc(-c2ccccn2)cn(-c2cccc(OCc3ccccc3)c2)c1=O [Example 276, 1-[3-(Benzyloxy)phenyl]-3-(2-cyanophenyl)-5-(2-pyridyl)-1,2-dihydropyridin-2-one]
Second: N#Cc1ccccc1-c1cc(-c2ccccn2)cn(-c2ccc3ccccc3c2)c1=O [Example 290, 3-(2-Cyanophenyl)-5-(2-pyridyl)-1-(2-naphthyl)-1,2-dihydropyridin-2-one]
The IC50 of the first is 9.5-fold higher: 1900 nM for the first, 200 nM for the second.

Going from `CC(=O)c1cccc(-n2cc(-c3ccccn3)cc(-c3ccccc3C#N)c2=O)c1` [Example 277, 1-(3-Acetylphenyl)-3-(2-cyanophenyl)-5-(2-pyridyl)-1,2-dihydropyridin-2-one] to `N#Cc1ccccc1-c1cc(-c2cccc(Br)n2)cn(-c2ccccc2)c1=O` [Example 300, 5-(2-Bromopyridin-6-yl)-3-(2-cyanophenyl)-1-phenyl-1,2-dihydropyridin-2-one], the IC50 falls from 600 nM to 300 nM (2-fold).

Compared with `CC(C)(C)NS(=O)(=O)c1ccc(-c2cc(-c3ccccn3)cn(-c3ccccc3)c2=O)cc1` [Example 278, 3-[4-(tert-Butylaminosulfonyl)phenyl]-1-phenyl-5-(2-pyridyl)-1,2-dihydropyridin-2-one], `O=c1c(-c2ccc(F)nc2)cc(-c2ccccn2)cn1-c1ccccc1` [Example 288, 3-(2-Fluoropyridin-5-yl)-5-(2-pyridyl)-1-phenyl-1,2-dihydropyridin-2-one] is 2.3-fold lower in IC50: 2800 nM for the first, 1200 nM for the second.

Compared with `O=c1c(-c2cccc3ccccc23)cc(-c2ccccn2)cn1-c1cccnc1` [Example 279, 3-(1-Naphthyl)-5-(2-pyridyl)-1-(3-pyridyl)-1,2-dihydropyridin-2-one], `O=c1c(-c2cccc3ccccc23)cc(-c2ccccn2)cn1-c1ccccc1` [Example 280, 3-(1-Naphthyl)-5-(2-pyridyl)-1-phenyl-1,2-dihydropyridin-2-one] is 2.8-fold lower in IC50: 3700 nM for the first, 1300 nM for the second.

Going from `O=c1c(-c2cccc3cccnc23)cc(-c2ccccn2)cn1-c1ccccc1` [Example 282, 3-(8-Quinolinyl)-5-(2-pyridyl)-1-phenyl-1,2-dihydropyridin-2-one] to `N#Cc1ccccc1-c1cc(-c2ccccn2)cn(-c2cccc3cccnc23)c1=O` [Example 292, 3-(2-Cyanophenyl)-5-(2-pyridyl)-1-(8-quinolinyl)-1,2-dihydropyridin-2-one], the IC50 falls from 9000 nM to 3300 nM (2.7-fold).

`O=c1c(-c2ccc3ccccc3c2)cc(-c2ccccn2)cn1-c1ccccc1` [Example 284, 3-(2-Naphthyl)-5-(2-pyridyl)-1-phenyl-1,2-dihydropyridin-2-one] and `O=c1c(-c2cc3ccccc3n2S(=O)(=O)c2ccccc2)cc(-c2ccccn2)cn1-c1ccccc1` [Example 293, 3-[(1-Benzenesulfonyl)indol-2-yl]-1-phenyl-5-(2-pyridyl)-1,2-dihydropyridin-2-one] are within 1.5-fold of each other in IC50: 2800 nM for the first, 3300 nM for the second.

First: O=c1c(-c2ccc(N3CCCC3)nc2)cc(-c2ccccn2)cn1-c1ccccc1 [Example 285, 3-(2-Pyrrolidinopyridin-5-yl)-5-(2-pyridyl)-1-phenyl-1,2-dihydropyridin-2-one]
Second: O=Cc1sccc1-c1cc(-c2ccccn2)cn(-c2ccccc2)c1=O [Example 286, 3-(2-Formylthiophen-3-yl)-5-(2-pyridyl)-1-phenyl-1,2-dihydropyridin-2-one]
The IC50 of the first is 24-fold higher: 7200 nM for the first, 300 nM for the second. The second is the more potent here.

Compared with `N#Cc1ccccc1-c1cc(-c2ccccn2)cn(-c2cccc3ccccc23)c1=O` [Example 291, 3-(2-Cyanophenyl)-5-(2-pyridyl)-1-(1-naphthyl)-1,2-dihydropyridin-2-one], `Cc1ccc(C)n1-c1cccc(-c2cc(-c3ccccc3C#N)c(=O)n(-c3ccccc3)c2)n1` [Example 297, 3-(2-Cyanophenyl)-5-[2-(2,6-dimethylpvrrol-1-yl)pyridin-6-yl]-1-phenyl-1,2-dihydropyridin-2-one] is 30-fold higher in IC50: 140 nM for the first, 4200 nM for the second. The first is the more potent here.

Compared with `N#Cc1ncccc1-c1cc(-c2ccccn2)cn(-c2cccnc2)c1=O` [Example 294, 3-(2-Cyanopyridin-3-yl)-5-(2-pyridyl)-1-(3-pyridyl)-1,2-dihydropyridin-2-one], `N#Cc1ccccc1-c1cc(-c2ccc([N+](=O)[O-])cn2)cn(-c2ccccc2)c1=O` [Example 299, 3-(2-Cyanophenyl)-5-(5-nitropyridin-2-yl)-1-phenyl-1,2-dihydropyridin-2-one] is 7.3-fold higher in IC50: 600 nM for the first, 4400 nM for the second. The first is the more potent here.

Same assay, conditions: Table 3; primary culture of rat embryo cerebral cortex nerve cells, 2 μM AMPA, 1 μM MK-801

First: N#Cc1ccccc1-c1cc(-c2cccc(N3CCOCC3)n2)cn(-c2ccccc2)c1=O [Example 302, 3-(2-Cyanophenyl)-5-(2-morpholinopyridin-6-yl)-1-phenyl-1,2-dihydropyridin-2-one]
Second: COC(=O)c1cccc(-c2cc(-c3ccccc3C#N)c(=O)n(-c3ccccc3)c2)n1 [Example 303, 3-(2-Cyanophenyl)-5-(2-methoxycarbonylpyridin-6-yl)-1-phenyl-1,2-dihydropyridin-2-one]
The IC50 of the first is 3-fold lower: 300 nM for the first, 900 nM for the second. The first is the more potent here.

Going from `N#Cc1ccccc1-c1cc(NC(=O)Nc2ccccc2)cn(-c2ccccc2)c1=O` [Example 307, 3-(2-Cyanophenyl)-1-phenyl-5-[N-(N′-phenylureylenyl)]-1,2-dihydropyridin-2-one] to `N#Cc1ccccc1-c1cc(NCc2ccccc2)cn(-c2ccccc2)c1=O` [Example 313, 5-Benzylamino-3-(2-cyanophenyl)-1-phenyl-1,2-dihydropyridin-2-one], the IC50 rises from 2000 nM to 5900 nM (3-fold). The first is the more potent here.

Compared with `CCCCNC(=O)Nc1ccc(-c2cc(-c3ccccn3)cn(-c3ccccc3)c2=O)cc1` [Example 308, 3-{4[N-(N′-butylureylenyl)phenyl]}-1-phenyl-5-(2-pyridyl)-1,2-dihydropyridin-2-one], `N#Cc1ccccc1Nc1cc(-c2ccccn2)cn(-c2ccccc2)c1=O` [Example 321, 3-(2-Cyanophenylamino)-5-(2-pyridyl)-1-phenyl-1,2-dihydropyridin-2-one] is 2.5-fold higher in IC50: 1600 nM for the first, 4000 nM for the second.

First: N#Cc1ccccc1-c1cc(NC(=O)c2ccccn2)cn(-c2ccccc2)c1=O [Example 309, 3-(2-Cyanophenyl)-1-phenyl-5-(2-pyridincarbonyl)amino-1,2-dihydropyridin-2-one]
Second: N#Cc1ccccc1-c1cc(-c2ccccn2)cn(-c2cccc(O)c2)c1=O [Example 315, 3-(2-Cyanophenyl)-1-(3-hydroxyphenyl)-5-(2-pyridyl)-1,2-dihydropyridin-2-one]
The IC50 of the first is 51-fold higher: 4100 nM for the first, 80 nM for the second. The second is the more potent here.

First: O=c1c(N(Cc2ccccc2)Cc2ccccc2)cc(-c2ccccn2)cn1-c1ccccc1 [Example 314, 3-Dibenzylamino-1-phenyl-5-(2-pyridyl)-1,2-dihydropyridin-2-one]
Second: Cc1ccc(-c2ccccc2)n1-c1cc(-c2ccccn2)cn(-c2ccccc2)c1=O [Example 327, 3-(2-Methyl-5-phenylpyrrol-1-yl)-5-(2-pyridyl)-1-phenyl-1,2-dihydropyridin-2-one]
The IC50 of the first is 1.7-fold lower: 4600 nM for the first, 8000 nM for the second.

`N#Cc1ccccc1-c1cc(-c2ccccn2)cn(COCc2ccccc2)c1=O` [Example 316, 1-Benzyloxymethyl-3-(2-cyanophenyl)-5-(2-pyridyl)-1,2-dihydropyridin-2-one] and `N#Cc1ccccc1-c1cc(-c2ccccn2)cn(CC2CCN(C(=O)OCc3ccccc3)CC2)c1=O` [Example 319, 1-[1-(Benzyloxycarbonyl)piperidin-4-yl]methyl-3-(2-cyanophenyl)-5-(2-pyridyl)-1,2-dihydropyridin-2-one] are within 1.5-fold of each other in IC50: 2100 nM for the first, 2000 nM for the second.

First: N#Cc1ccccc1-c1cc(-c2ccccn2)cn(CC2CCCC2)c1=O [Example 317, 3-(2-Cyanophenyl)-1-cyclopentylmethyl-5-(2-pyridyl)-1,2-dihydropyridin-2-one]
Second: CC(C)(C)OC(=O)N1CCC(Cn2cc(-c3ccccn3)cc(-c3ccccc3C#N)c2=O)CC1 [Example 318, 1-[1-(tert-butoxycarbonyl)piperidin-4-yl]methyl-3-(2-cyanophenyl)-5-(2-pyridyl)-1,2-dihydropyridin-2-one]
The IC50 of the first is 5.2-fold lower: 600 nM for the first, 3100 nM for the second. The first is the more potent here.

Going from `O=c1c(-n2cccc2)cc(-c2ccccn2)cn1-c1ccccc1` [Example 320, 3-(Pyrrol-1-yl)-5-(2-pyridyl)-1-phenyl-1,2-dihydropyridin-2-one] to `O=c1c(-n2ccc3ccccc32)cc(-c2ccccn2)cn1-c1ccccc1` [Example 326, 3-(Indol-1-yl)-5-(2-pyridyl)-1-phenyl-1,2-dihydropyridin-2-one], the IC50 falls from 2300 nM to 900 nM (2.6-fold). The second is the more potent here.

`N#Cc1ccccc1-c1cc(-c2ccccn2)cn(-c2cccc(OC3CCNCC3)c2)c1=O` [Example 330, 3-(2-Cyanophenyl)-1-[3-(4-piperidyloxy)]phenyl-5-(2-pyridyl)-1,2-dihydropyridin-2-one] and `CC(=O)N1CCC(Oc2cccc(-n3cc(-c4ccccn4)cc(-c4ccccc4C#N)c3=O)c2)CC1` [Example 333, 1-[3-(N-acetylpiperidin-4-yl-oxy)phenyl]-3-(2-cyanophenyl)-5-(2-pyridyl)-1,2-dihydropyridin-2-one] are within 1.5-fold of each other in IC50: 400 nM for the first, 300 nM for the second.

`N#Cc1ccccc1-c1cc(-c2ccccn2)cn(-c2cccc(OC3CCN(C(=O)c4ccccc4)CC3)c2)c1=O` [Example 334, 1-[3-(N-benzoylpiperidin-4-yl-oxy)phenyl]-3-(2-cyanophenyl)-5-(2-pyridyl)-1,2-dihydropyridin-2-one] and `N#Cc1ccccc1-c1cc(-c2ccccn2)cn(-c2cccc(OC3CCN(S(=O)(=O)c4ccccc4)CC3)c2)c1=O` [Example 337, 1-{3-[1-(Benzenesulfonyl)piperidin-4-yl-oxy]phenyl}-3-(2-cyanophenyl)-5-(2-pyridyl)-1,2-dihydropyridin-2-one] are within 1.5-fold of each other in IC50: 600 nM for the first, 700 nM for the second.

`CS(=O)(=O)N1CCC(Oc2cccc(-n3cc(-c4ccccn4)cc(-c4ccccc4C#N)c3=O)c2)CC1` [Example 338, 3-(2-Cyanophenyl)-1-{3-[1-(methanesulfonyl)piperidin-4-yl-oxy]phenyl}-5-(2-pyridyl)-1,2-dihydropyridin-2-one] gave an IC50 of 400 nM.
